The values that follow come from patent US4958010A, “Epipodophyllotoxin glucoside lactam derivatives” (Bristol-Myers Company, priority 1989, dated 1990).

Where “and” joins values, the source holds several entries; their conditions need not be identical. Equal values may be shown once. Where a name gives a salt, the structure may show the parent alone. A value given as a limit tells only on which side of the number the result lay.

The test system of one series is P388 leukemia. Description: antitumor activity against intravenously implanted P388 leukemia in BDF1 female mice. Type of series: in vivo, murine (BDF1 female mice). As to conditions: 10^6 P388 cells i.v., 64 days. As for the experimental part: Compound of Example 15 was evaluated against intravenously implanted P388 leukemia (10^6 cells) in BDF1 female mice. The test compound was administered intravenously at various dose levels to groups of six mice on days 5 and 8; the positive control, etoposide, was given intraperitoneally. The experiment lasted 64 days.

For series [1] the following is noted: Cancer Chemoth. Rep., 1966, 50:565-571; cited from earlier work.
Another series deals with HCT-116. Description: in vitro cytotoxicity assay, HCT-116 human colon tumor. Type of series: cell-based. The conditions noted are these: concentration required to inhibit cell growth by 50%, four-fold serial dilution, replicate determinations on separate lines. The method, then: (§1) Representative compounds of the present invention were also evaluated in in vitro cytotoxicity assay against various murine and human tumor cell lines. The in vitro cytotoxicity assay involved growing various mammalian tumor cells, including human tumor cells, on microtitre plates employing established tissue culture methods. The concentration of each compound required to inhibit cell growth by 50% (IC50) was then determined by four-fold serial dilution technique. Tumor cells of the following types were employed for each compound tested: B16-F10 murine melanoma; Moser human colon; SW900 human lung; and two human colon tumor cell lines namely HCT-116, and HCT/VP35, the latter being resistant to etoposide (VP). […] The in vitro data may also be evaluated in terms of potency ratio which is defined as the ratio of IC50 against an etoposide-resistant cell-line to IC50 against an etoposide-sensitive cell-line.

The subject of a further series is B16-F10 murine melanoma. In words: in vitro cytotoxicity assay, B16-F10 murine melanoma. The conditions noted are these: concentration required to inhibit cell growth by 50%, four-fold serial dilution, replicate determinations on separate lines. The class given is cell-based. As for the experimental part: as §1
Another series relates to HCT/VP35. In words: in vitro cytotoxicity assay, HCT/VP35 human colon tumor resistant to etoposide. The class given is cell-based. The conditions noted are these: etoposide-resistant line, concentration required to inhibit cell growth by 50%, four-fold serial dilution, replicate determinations on separate lines. The method, then: as §1
In another series the test system is Moser human colon. Description: in vitro cytotoxicity assay, Moser human colon. The class given is cell-based. The conditions noted are these: concentration required to inhibit cell growth by 50%, four-fold serial dilution, replicate determinations on separate lines. The method, then:
as §1

For series [2] the following is noted: cited from earlier work.
A further series relates to SW900 human lung. In words: in vitro cytotoxicity assay, SW900 human lung. Type of series: cell-based. The conditions noted are these: concentration required to inhibit cell growth by 50%, four-fold serial dilution, replicate determinations on separate lines. The method, then: as §1

`COc1cc([C@@H]2c3cc4c(cc3[C@@H](O[C@@H]3O[C@@H]5CO[C@@H](C)O[C@H]5[C@H](O)[C@H]3O)[C@H]3CNC(=O)[C@H]23)OCO4)cc(OC)c1OP(=O)(O)O` [Example 15, 6H-Pyrrolo[3',4':6,7]naphtho[2,3-d]-1,3-dioxole-6-one, 5,5a,7,8,8a,9-hexahydro-9-[(4,6-O-ethylidene-β-Dglucopyranosyl)oxy]-5-[(3,5-dimethoxy-4-phosphonoxy)phenyl]-1, disodium salt, [5R-[5α,5aβ,8aα,9β(R*)]-]: in the series with P388 leukemia (drug i.v. on days 5 and 8, 200 mg/kg/dose), the “max. % T/C” value is recorded as 235 % T/C.

On to `CCNNC(=O)C1C(c2cc(OC)c(OC)c(OC)c2)c2cc3c(cc2C(O)C1CO)OCO3` (centres unmarked) [ethyl hydrazide of podophyllotoxin (V), ethyl hydrazide of podophyllotoxin], for which, in series [1], the “antitumor activity in clinical trials” value is reported as “minimal antitumor activity”.

Turning to `COc1cc([C@@H]2c3cc4c(cc3[C@@H](O[C@@H]3O[C@@H]5CO[C@@H](C)O[C@H]5[C@H](O)[C@H]3O)[C@H]3COC(=O)[C@H]23)OCO4)cc(OC)c1O` [etoposide, reference compound], the “IC50 HCT-116” value with HCT-116 is 14.78 µg/mL and 20.54 µg/mL and 38.03 µg/mL and 41.01 µg/mL and 3.86 µg/mL and 6.57 µg/mL; in the series on HCT-116 (listed as Etoposide), 15.21 µg/mL and 30.12 µg/mL and 51.27 µg/mL. Besides, the “IC50 B16-F10” value in the series with B16-F10 murine melanoma was 16.75 µg/mL and 19.47 µg/mL and 27.72 µg/mL and 30.38 µg/mL and 9.96 µg/mL and 5.80 µg/mL; in the series on B16-F10 murine melanoma (listed as Etoposide), 19.36 µg/mL and 51.93 µg/mL and 62.19 µg/mL. The “IC50 HCT/VP35” value with HCT/VP35 was 122.79 µg/mL and 184.01 µg/mL and 98.33 µg/mL and 142.90 µg/mL and 79.06 µg/mL and 48.22 µg/mL; in the series with HCT/VP35 (listed as Etoposide) it was 16.31 µg/mL and 18.74 µg/mL and 140.63 µg/mL. Besides, in the series with P388 leukemia (etoposide i.p., 125 mg/kg/dose), the “max. % T/C (positive control)” value was greater than 753 % T/C. Further, the “IC50 Moser” value with Moser human colon was 121.73 µg/mL and 163.19 µg/mL and 208.30 µg/mL and 209.76 µg/mL and 65.72 µg/mL and 54.09 µg/mL; with Moser human colon (listed as Etoposide), 94.51 µg/mL and 97.83 µg/mL and 116.41 µg/mL. The in vivo metabolism result in series [2] is reported as “extensively metabolized to the open ring hydroxy acid”. Moreover, the “IC50 SW900” value was 201.94 µg/mL and 241.29 µg/mL and 243.49 µg/mL and > 500 µg/mL and 77.80 µg/mL and 54.59 µg/mL in the series on SW900 human lung; 213.23 µg/mL and 241.88 µg/mL in the series with SW900 human lung (listed as Etoposide).
